According to patent publication US8192962B2, “Processes for detecting toxic substances” (Daikin Industries, Ltd., priority 2001, dated 2012):

Tested on: Energy system protein genes
Test: DNA chip mRNA expression in yeast, energy system protein genes (Table 4)
Type: cell-based, Saccharomyces cerevisiae S288C
Method in brief: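 Values are treated/untreated fluorescence ratios from a whole-genome yeast DNA chip hybridized over 12 hours at 65° C with Cy3- or Cy5-labelled cDNA from poly(A) mRNA. Log-phase S288C yeast in YPD at 25° C had received a single toxic chemical for two hours, dosed to slow growth without killing.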

In the case of “manganese ethylenebis(dithiocarbamate) [(8)]”, the “The level of expressed mRNA in the presence of chemical substance/The level of expressed mRNA in the absence of chemical substance” value (yeast gene YJR048W) is reported as 0.9, the “The level of expressed mRNA in the presence of chemical substance/The level of expressed mRNA in the absence of chemical substance” value (yeast gene YJR121W, cells incubated two hours with the chemical substance) is reported as 0.7 and the “The level of expressed mRNA in the presence of chemical substance/The level of expressed mRNA in the absence of chemical substance” value (yeast gene YJR155W) is reported as 10.6. The “The level of expressed mRNA in the presence of chemical substance/The level of expressed mRNA in the absence of chemical substance” value (yeast gene YKL016C, cells incubated two hours with the chemical substance) was 1.6, the “The level of expressed mRNA in the presence of chemical substance/The level of expressed mRNA in the absence of chemical substance” value (yeast gene YKL060C, cells incubated two hours with the chemical substance) was 1.1 and the “The level of expressed mRNA in the presence of chemical substance/The level of expressed mRNA in the absence of chemical substance” value (yeast gene YKL141W, cells incubated two hours with the chemical substance) was 0.8. For the same substance, the “The level of expressed mRNA in the presence of chemical substance/The level of expressed mRNA in the absence of chemical substance” value (yeast gene YKL148C, cells incubated two hours with the chemical substance) was 0.8, the “The level of expressed mRNA in the presence of chemical substance/The level of expressed mRNA in the absence of chemical substance” value (yeast gene YKR009C, cells incubated two hours with the chemical substance) was 0.9 and the “The level of expressed mRNA in the presence of chemical substance/The level of expressed mRNA in the absence of chemical substance” value (yeast gene YKR058W, cells incubated two hours with the chemical substance, 25° C., YPD medium) was 1.5. For the same substance, the “The level of expressed mRNA in the presence of chemical substance/The level of expressed mRNA in the absence of chemical substance” value (yeast gene YKR097W) was 2.5, the “The level of expressed mRNA in the presence of chemical substance/The level of expressed mRNA in the absence of chemical substance” value (yeast gene YLL041C, cells incubated two hours with the chemical substance) was 0.8 and the “The level of expressed mRNA in the presence of chemical substance/The level of expressed mRNA in the absence of chemical substance” value (yeast gene YLR038C, cells incubated two hours with the chemical substance) was 1.4. For the same substance, the “The level of expressed mRNA in the presence of chemical substance/The level of expressed mRNA in the absence of chemical substance” value (yeast gene YLR044C, cells incubated two hours with the chemical substance) was 0.7, the “The level of expressed mRNA in the presence of chemical substance/The level of expressed mRNA in the absence of chemical substance” value (yeast gene YLR134W, cells incubated two hours with the chemical substance) was 0.8 and the “The level of expressed mRNA in the presence of chemical substance/The level of expressed mRNA in the absence of chemical substance” value (yeast gene YLR258W, cells incubated two hours with the chemical substance) was 0.9. For the same substance, the “The level of expressed mRNA in the presence of chemical substance/The level of expressed mRNA in the absence of chemical substance” value (yeast gene YLR284C, cells incubated two hours with the chemical substance) was 1.2, the “The level of expressed mRNA in the presence of chemical substance/The level of expressed mRNA in the absence of chemical substance” value (yeast gene YLR295C, cells incubated two hours with the chemical substance, 25° C., YPD medium) was 1.2 and the “The level of expressed mRNA in the presence of chemical substance/The level of expressed mRNA in the absence of chemical substance” value (yeast gene YLR304C, cells incubated two hours with the chemical substance) was 0.6. For the same substance, the “The level of expressed mRNA in the presence of chemical substance/The level of expressed mRNA in the absence of chemical substance” value (yeast gene YLR345W) was 1.4, the “The level of expressed mRNA in the presence of chemical substance/The level of expressed mRNA in the absence of chemical substance” value (yeast gene YLR354C, cells incubated two hours with the chemical substance) was 1.4 and the “The level of expressed mRNA in the presence of chemical substance/The level of expressed mRNA in the absence of chemical substance” value (yeast gene YLR377C, cells incubated two hours with the chemical substance) was 0.7. The “The level of expressed mRNA in the presence of chemical substance/The level of expressed mRNA in the absence of chemical substance” value (yeast gene YLR395C, cells incubated two hours with the chemical substance) was 1.0, the “The level of expressed mRNA in the presence of chemical substance/The level of expressed mRNA in the absence of chemical substance” value (yeast gene YML087C) was 1.3 and the “The level of expressed mRNA in the presence of chemical substance/The level of expressed mRNA in the absence of chemical substance” value (yeast gene YML120C, cells incubated two hours with the chemical substance) was 0.9. The “The level of expressed mRNA in the presence of chemical substance/The level of expressed mRNA in the absence of chemical substance” value (yeast gene YML129C, cells incubated two hours with the chemical substance) was 1.2, the “The level of expressed mRNA in the presence of chemical substance/The level of expressed mRNA in the absence of chemical substance” value (yeast gene YMR073C, cells incubated two hours with the chemical substance) was 1.1 and the “The level of expressed mRNA in the presence of chemical substance/The level of expressed mRNA in the absence of chemical substance” value (yeast gene YMR118C) was 1.0. For the same substance, the “The level of expressed mRNA in the presence of chemical substance/The level of expressed mRNA in the absence of chemical substance” value (yeast gene YMR205C, cells incubated two hours with the chemical substance) was 0.7, the “The level of expressed mRNA in the presence of chemical substance/The level of expressed mRNA in the absence of chemical substance” value (yeast gene YMR261C, cells incubated two hours with the chemical substance) was 0.7 and the “The level of expressed mRNA in the presence of chemical substance/The level of expressed mRNA in the absence of chemical substance” value (yeast gene YMR267W, cells incubated two hours with the chemical substance, 25° C., YPD medium) was 1.5. The “The level of expressed mRNA in the presence of chemical substance/The level of expressed mRNA in the absence of chemical substance” value (yeast gene YMR323W, cells incubated two hours with the chemical substance) was 0.8, the “The level of expressed mRNA in the presence of chemical substance/The level of expressed mRNA in the absence of chemical substance” value (yeast gene YNL071W) was 0.9 and the “The level of expressed mRNA in the presence of chemical substance/The level of expressed mRNA in the absence of chemical substance” value (yeast gene YNL202W, cells incubated two hours with the chemical substance) was 1.2. The “The level of expressed mRNA in the presence of chemical substance/The level of expressed mRNA in the absence of chemical substance” value (yeast gene YNL241C) was 0.9, the “The level of expressed mRNA in the presence of chemical substance/The level of expressed mRNA in the absence of chemical substance” value (yeast gene YNL331C) was 13.1 and the “The level of expressed mRNA in the presence of chemical substance/The level of expressed mRNA in the absence of chemical substance” value (yeast gene YOL086C, cells incubated two hours with the chemical substance) was 0.8. The “The level of expressed mRNA in the presence of chemical substance/The level of expressed mRNA in the absence of chemical substance” value (yeast gene YOL165C) was 17.8, the “The level of expressed mRNA in the presence of chemical substance/The level of expressed mRNA in the absence of chemical substance” value (yeast gene YOR142W, cells incubated two hours with the chemical substance) was 0.8 and the “The level of expressed mRNA in the presence of chemical substance/The level of expressed mRNA in the absence of chemical substance” value (yeast gene YOR178C, cells incubated two hours with the chemical substance) was 0.9. The “The level of expressed mRNA in the presence of chemical substance/The level of expressed mRNA in the absence of chemical substance” value (yeast gene YOR388C, cells incubated two hours with the chemical substance) was 0.7, the “The level of expressed mRNA in the presence of chemical substance/The level of expressed mRNA in the absence of chemical substance” value (yeast gene YPL031C, cells incubated two hours with the chemical substance) was 1.0 and the “The level of expressed mRNA in the presence of chemical substance/The level of expressed mRNA in the absence of chemical substance” value (yeast gene YPL061W, cells incubated two hours with the chemical substance) was 0.8. For the same substance, the “The level of expressed mRNA in the presence of chemical substance/The level of expressed mRNA in the absence of chemical substance” value (yeast gene YPL088W) was 1.9, the “The level of expressed mRNA in the presence of chemical substance/The level of expressed mRNA in the absence of chemical substance” value (yeast gene YPL171C) was 20.5 and the “The level of expressed mRNA in the presence of chemical substance/The level of expressed mRNA in the absence of chemical substance” value (yeast gene YPL240C) was 1.2. For the same substance, the “The level of expressed mRNA in the presence of chemical substance/The level of expressed mRNA in the absence of chemical substance” value (yeast gene YPL262W, cells incubated two hours with the chemical substance) was 1.0, the “The level of expressed mRNA in the presence of chemical substance/The level of expressed mRNA in the absence of chemical substance” value (yeast gene YPL275W, cells incubated two hours with the chemical substance) was 1.0 and the “The level of expressed mRNA in the presence of chemical substance/The level of expressed mRNA in the absence of chemical substance” value (yeast gene YPL276W, cells incubated two hours with the chemical substance) was 0.9. The “The level of expressed mRNA in the presence of chemical substance/The level of expressed mRNA in the absence of chemical substance” value (yeast gene YPR048W, cells incubated two hours with the chemical substance) was 1.5 and the “The level of expressed mRNA in the presence of chemical substance/The level of expressed mRNA in the absence of chemical substance” value (yeast gene YPR184W, cells incubated two hours with the chemical substance) was 0.7.
